Measured values from EP1145714A1, “DRUGS” (Takeda Chemical Industries, Ltd., priority 1998, dated 2000).

Tests used:
[1] = system: methotrexate-induced delayed vomiting in dogs; assay: Methotrexate-induced delayed vomiting in dogs, oral dosing; assay type: in vivo, beagle dogs; settings: methotrexate 2.5 mg/kg i.v.; for Frequency of vomiting (mean ± SD), Total frequency / Number of dogs with vomiting/number of tested dogs: 72 hours
Protocol: 3 or 4 beagle dogs (8.3 to 12.6 kg), male or female per one group were used. Methotrexate was intravenously administered at 2.5 mg/ml/kg. 8, 24 and 48 hours after methotrexate dosing, predetermined doses of the compound No. 3, ondansetron and 0.5% methyl cellulose solution were orally given. The compound No. 3 and 0.5 % methyl cellulose solution were dosed 30 minutes after a small amount of a feed was given to the animals, while ondansetron was dosed to the animals under fasting. The frequency of vomiting was counted in number, up to 72 hours after methotrexate dosing. The compound No. 3 was suspended in 0.5 % methyl cellulose solution and was then orally dosed at a ratio of 0.25 to 1 ml per 1 kg body weight. A predetermined volume of an ondansetron injection at a concentration of 0.2 w/v % was orally dosed. Additionally, 0.5 % methyl cellulose solution was orally given at a ratio of 1 ml per 1 kg body weight. The data relating to the frequency of vomiting, the latency and the time period from the occurrence of vomiting to the termination thereof were statistically analyzed by the Dunnett test, with reference to the difference from the control group.
The delayed vomiting suppression ratio and the suppression ratio of the total frequency of vomiting were calculated by the following formula.

[2] = system: morphine-induced vomiting in dogs; assay: Morphine-induced vomiting in dogs, oral dosing; assay type: in vivo, beagle dogs; settings: morphine 0.3 mg/kg subcutaneous; for B: Frequency of vomiting (mean ± 3D) / C: Time period until first vomiting (minute; mean ± SD) / D: Duration of vomiting (minute; mean ± SD) / Number of dogs with vomiting/number of tested dogs: 30 minutes
Protocol: Male 6 or 7 beagle dogs (8.8 to 14.5 kg) per one group were used. Morphine was subcutaneously administered at 0.3 mg/0. 03 ml/kg. 2.5 hours before morphine dosing, a small amount of a feed was given to the animals. 30 minutes thereafter, predetermined doses of the compound No. 3 were orally given. To a control animal group under no fasting was orally given a predetermined volume of 0.5 % methyl cellulose solution. A predetermined dose of ondansetron was orally given to the animals under fasting. To a control animal group of ondansetron under fasting was orally given a predetermined volume of physiological saline. The frequency of vomiting was counted up to 30 minutes after morphine dosing.
The compound No. 3 was suspended in 0.5 % methyl cellulose solution and was then orally administered at a ratio of 1 ml per 1 kg body weight. An injection of ondansetron at a concentration of 0.2 w/v % was orally dosed. Additionally, 0.5 % methyl cellulose solution was orally given at a ratio of 1 ml per 1 kg body weight, while physiological saline was orally given at a ratio of 0.5 ml per 1 kg body weight. The data relating to the frequency of vomiting, the time period (latency) until first vomiting and the time period from the occurrence of vomiting to the termination thereof were statistically analyzed by the Dunnett test or t test, with reference to the difference from the control group.
The retching suppression ratio and vomiting suppression ratio were calculated by the following formula. [Frequency of retching or vomiting in control] - [Frequency of retching or vomiting in animals dosed with compound No. 3] / [Frequency of retching or vomiting in control] x 100 (%) [formula]

[3] = system: acute vomiting induced by cisplatin in ferrets; assay: Acute vomiting induced by cisplatin in ferrets, compound orally given; assay type: in vivo; settings: cisplatin 10 mg/kg i.p.; for Duration of retching (in hour; mean ± SD) / Duration of vomiting (in hour;, mean ± SD) / Frequency of retching (mean ± SD) / Frequency of vomiting (mean ± SD) / Number of ferrets with retching /number of tested ferrets / Number of ferrets with vomiting /number of tested ferrets / Time period until first retching (in hour; ± mean SD) / Time period until first vomiting (in hour;, mean ± SD): 5 hours
Protocol: 5 to 6 male ferrets (1.2 to 2.3 kg) per one group were used. Cisplatin was intraperitoneally given at 10 mg/10 ml/kg. One hour prior to cisplatin administration, a small volume of a feed was given to the animals. 30 minutes prior to cisplatin administration, predetermined doses of the compound No. 3 were orally given. Similarly, 0.5 % methyl cellulose (MC) solution was orally given to a control animal group under no fasting. The frequency of vomiting was counted in number, up to 5 hours after cisplatin administration.
The compound No. 3 was suspended in 0.5 % methyl cellulose solution to predetermined concentrations, for oral dosing at a ratio of 1 ml per 1 kg body weight. Additionally, 0.5% methyl cellulose solution was orally given at a ratio of 1 ml per 1 kg body weight. The data relating to the frequency of vomiting, the time period (latency) until first vomiting and the time period from the occurrence of vomiting to the termination thereof were statistically analyzed by the Dunnett test, with reference to the difference from the control group.
The acute retching suppression ratio and acute vomiting suppression ratio were calculated by the following formula. [Frequency of retching or vomiting in control] - [Frequency of retching or vomiting in animals dosed with the compound No. 3] / [Frequency of retching or vomiting in control] x 100 (%) [formula]

## Cc1ccc(-c2c3n(c(=O)c4ncccc24)CC[C@@H](C)CN(Cc2cc(C(F)(F)F)cc(C(F)(F)F)c2)C3=O)cc1 [Cpd. No.3, (9R)-7-[3,5-bis(trifluoromethyl)benzyl]-6,7,8,9,10,11-hexahydro-9-methyl-5-(4-methylphenyl)-6,13-dioxo-13H-[1,4]diazocino[2,1-g][1,7]naphthylidine]
[1]; 0.01 mg/kg or higher p.o.
  Effect on methotrexate-induced vomiting (in words): significantly suppressed
  Effect on the time period from the occurrence of vomiting to the termination thereof (in words): significantly shortened
[1]; 0.01 mg/kg p.o. once daily
  Delayed vomiting suppression ratio (24 to 72 hours after MIX dosing): 60 % b
  Suppression ratio of total frequency of vomiting (0 to 72 hours after MTX dosing): 62 % b
[1]; 0.01 mg/kg p.o.
  Duration (in hour; mean ± SD): 21.8 ± 5.8 a hour
  Frequency of vomiting (mean ± SD), Day 0 (0-24 hours): 0 b
  Frequency of vomiting (mean ± SD), Days 1 + 2 (24 - 72 hours): 4.7 ± 0.7 b
  Latency (in hour; mean ± SD): 33.8 ± 4.8 h
  Frequency of vomiting (mean ± SD), Total frequency: 4.7 ± 0.7 b
  Number of dogs with vomiting/number of tested dogs: 3/3
[1]; 0.1 mg/kg p.o. once daily
  Delayed vomiting suppression ratio (24 to 72 hours after MIX dosing): 74 % b
  Suppression ratio of total frequency of vomiting (0 to 72 hours after MTX dosing): 76 % b
[1]; 0.1 mg/kg p.o.
  Duration (in hour; mean ± SD): 15.0 ± 8.0 b hour
  Frequency of vomiting (mean ± SD), Day 0 (0-24 hours): 0 b
  Frequency of vomiting (mean ± SD), Days 1 + 2 (24 - 72 hours): 3.0 ± 1.0 b
  Latency (in hour; mean ± SD): 35.7 ± 7.1 h
  Frequency of vomiting (mean ± SD), Total frequency: 3.0 ± 1.0 b
  Number of dogs with vomiting/number of tested dogs: 3/3
[1]; 1 mg/kg p.o. once daily
  Delayed vomiting suppression ratio (24 to 72 hours after MIX dosing): 68 % b
  Suppression ratio of total frequency of vomiting (0 to 72 hours after MTX dosing): 70 % b
[1]; 1 mg/kg p.o.
  Duration (in hour; mean ± SD): 14.4 ± 6.1 b hour
  Frequency of vomiting (mean ± SD), Day 0 (0-24 hours): 0 b
  Frequency of vomiting (mean ± SD), Days 1 + 2 (24 - 72 hours): 3.7 ± 0.7 b
  Latency (in hour; mean ± SD): 46.7 ± 8.7 h
  Frequency of vomiting (mean ± SD), Total frequency: 3.7 ± 0.7 b
  Number of dogs with vomiting/number of tested dogs: 3/3
[1]; 3 mg/kg p.o. once daily
  Delayed vomiting suppression ratio (24 to 72 hours after MIX dosing): 85 % b
  Suppression ratio of total frequency of vomiting (0 to 72 hours after MTX dosing): 86 % b
[1]; 3 mg/kg p.o.
  Duration (in hour; mean ± SD): 6.4 ± 5.9 b hour
  Frequency of vomiting (mean ± SD), Day 0 (0-24 hours): 0 b
  Frequency of vomiting (mean ± SD), Days 1 + 2 (24 - 72 hours): 1.7 ± 0.3 b
  Latency (in hour; mean ± SD): 45.5 ± 3.3 h
  Frequency of vomiting (mean ± SD), Total frequency: 1.7 ± 0.3 b
  Number of dogs with vomiting/number of tested dogs: 3/3
[1]; 10 mg/kg p.o. once daily
  Delayed vomiting suppression ratio (24 to 72 hours after MIX dosing): 97 % b
  Suppression ratio of total frequency of vomiting (0 to 72 hours after MTX dosing): 98 % b
[1]; 10 mg/kg p.o.
  Duration (in hour; mean ± SD): 0 b hour
  Effect on methotrexate-induced vomiting (in words): almost completely suppressed
  Frequency of vomiting (mean ± SD), Day 0 (0-24 hours): 0 b
  Frequency of vomiting (mean ± SD), Days 1 + 2 (24 - 72 hours): 0.3 ± 0.3 b
  Latency (in hour; mean ± SD): 66.2 ± 5.8 b hour
  Frequency of vomiting (mean ± SD), Total frequency: 0.3 ± 0.3 b
  Number of dogs with vomiting/number of tested dogs: 1/4
[2]; 0.1 mg/kg p.o.
  Acute vomiting suppression ratio: 55 % NS
  B: Frequency of vomiting (mean ± 3D): 1.0 ± 0
  C: Time period until first vomiting (minute; mean ± SD): 8.7 ± 1.2 min
  D: Duration of vomiting (minute; mean ± SD): 0 min
  Number of dogs with vomiting/number of tested dogs: 3/3
[2]; 0.3 mg/kg p.o.
  Acute vomiting suppression ratio: 86 % NS
  Effect on vomiting (in words): significantly suppressed
  B: Frequency of vomiting (mean ± 3D): 0.3 ± 0.3a
  C: Time period until first vomiting (minute; mean ± SD): 22.0 ± 8.0 a minute
  D: Duration of vomiting (minute; mean ± SD): 0 min
  Number of dogs with vomiting/number of tested dogs: 1/3
[2]; 1 mg/kg p.o.
  Acute vomiting suppression ratio: 100 % b
  Effect on vomiting (in words): completely suppressed
  B: Frequency of vomiting (mean ± 3D): 0 b
  C: Time period until first vomiting (minute; mean ± SD): 30 b minute
  D: Duration of vomiting (minute; mean ± SD): 0 min
  Number of dogs with vomiting/number of tested dogs: 0/3
[3]; 1 mg/kg p.o.
  Suppression ratio of acute retching: 38 % NS
  Suppression ratio of acute vomiting: 22 % NS
  Duration of retching (in hour; mean ± SD): 1.7 ± 0.4 h
  Duration of vomiting (in hour;, mean ± SD): 1.4 ± 0.4 h
  Frequency of retching (mean ± SD): 79.0 ± 15.1
  Frequency of vomiting (mean ± SD): 8.3 ± 2.2
  Number of ferrets with retching /number of tested ferrets: 6/6
  Number of ferrets with vomiting /number of tested ferrets: 6/6
  Time period until first retching (in hour; ± mean SD): 1.5 ± 0.1 h
  Time period until first vomiting (in hour;, mean ± SD): 1.6 ± 0.1 h
[3]; 3 mg/kg p.o.
  Effect on vomiting (in words): significantly suppressed
  Suppression ratio of acute retching: 53 % b
  Suppression ratio of acute vomiting: 27 % NS
  Duration of retching (in hour; mean ± SD): 1.7 ± 0.3 h
  Duration of vomiting (in hour;, mean ± SD): 1.6 ± 0.4 h
  Frequency of retching (mean ± SD): 59.3 ± 12.0 b
  Frequency of vomiting (mean ± SD): 7.8 ± 1.3
  Number of ferrets with retching /number of tested ferrets: 6/6
  Number of ferrets with vomiting /number of tested ferrets: 6/6
  Time period until first retching (in hour; ± mean SD): 1.6 ± 0.1 h
  Time period until first vomiting (in hour;, mean ± SD): 1.6 ± 0.1 h
[3]; 10 mg/kg p.o.
  Effect on vomiting (in words): prominently suppressed
  Suppression ratio of acute retching: 88 % b
  Suppression ratio of acute vomiting: 70 % b
  Duration of retching (in hour; mean ± SD): 2.4 ± 0.5 h
  Duration of vomiting (in hour;, mean ± SD): 1.0 ± 0.4 h
  Frequency of retching (mean ± SD): 14.8 ± 3.7 b
  Frequency of vomiting (mean ± SD): 3.2 ± 1.0 b
  Number of ferrets with retching /number of tested ferrets: 5/6
  Number of ferrets with vomiting /number of tested ferrets: 5/6
  Time period until first retching (in hour; ± mean SD): 2.1 ± 0.6 h
  Time period until first vomiting (in hour;, mean ± SD): 2.2 ± 0.6 h
